Our source for the IC50 values is patent publication US20070149508A1, “Six membered heteroaromatic inhibitors targeting resistant kinase mutations” (TargeGen, Inc., priority 2005, published 2007).

Each structure is given as a SMILES string. Counter-ions that a name gives are not always drawn.

The target in one test is T1, Abl (T315I) (Homo sapiens, UniProt P00519, T315I).
T1 construct: purchased Upstate
Briefly: Abl (T315I) Kinase Assay (KinaseGlo luminescent detection of residual ATP). The test is classed as biochemical. Particulars: Abl (T315I) IC50 (nM), Abl (T315I) (Upstate, 17 ng/well), Abltide 100 uM, ATP 500 nM, 60 minutes at 37° C. The procedure:
The assay was performed similarly to the Abl kinase assay. Abl (T315I) (Upstate, 17 ng/well); Abltide substrate (100 uM) and ATP (500 nM) comprised the reaction mixture. Compound was similarly diluted, and the reaction plate was incubated for 60 minutes at 37° C.

The next test deals with Abl kinase (Homo sapiens, UniProt P00519). Briefly: biochemical. The settings on record: Abl IC50 (nM), Abl kinase (Invitrogen, 20 ng/well), Abltide 100 μM, ATP 500 nM, 37° C. for 60 minutes, top concentration 10 uM.

By IC50 is commonly meant the midpoint of a concentration-inhibition curve. High values mean weaker potency in that assay, low ones greater potency in that assay. For the compound `O=S(=O)(c1ccc(Nc2ncc(/C=C/c3cccc4[nH]ccc34)cn2)cc1)N1CCNCC1` [5-[(E)-2-(1H-indol-4-yl)vinyl]-N-{4-(piperazin-1-ylsulfonyl)phenyl]pyrimidin-2-amine], the IC50 was 450 nM against Abl (T315I) and 22 nM against Abl kinase.
The corresponding values for `O=S(=O)(c1ccc(Nc2ncc(/C=C/c3ccc(F)c4[nH]ccc34)cn2)cc1)C1CCNCC1` [5-((E)-2-(7-fluoro-1H-indol-4-yl)vinyl)-N-(4-(piperidin-ylsulfonyl)phenyl)pyrimidin-2-amine Hydrochloride] are 149 nM and 8 nM.
For `O=S(=O)(c1ccc(Nc2ncc(/C=C/c3cccc4[nH]ncc34)cn2)cc1N1CCNCC1)N1CCNCC1` [5-[(E)-2-(1H-indazol-4-yl)vinyl]-N-[3-piperazin-1-yl-4-piperazin-1-ylsulfonyl)phenyl]pyrimidin-2-amine] the same measures were 336 nM and 20 nM.
The corresponding values for `Nc1nc2ccc(/C=C/c3cnc(Nc4ccc(S(=O)(=O)N5CCNCC5)c(NCCO)c4)nc3)cc2s1` [2-{[5-({5-[(E)-2-(2-amino-1,3-benzothiazol-6-yl)vinyl]pyrimidin-2-yl}amino)-2-(piperazin-1-ylsulfonyl)phenyl]amino}ethanol] are 156 nM and 154 nM.
As for `O=S(=O)(c1ccc(Nc2ncc(/C=C/c3ccc(O)cc3)cn2)cc1)C1CCNCC1` [4-(2-{2-[4-(Piperidine-4-sulfonyl)-phenylamino]-pyrimidin-5-yl}-vinyl)-phenol], the results for the IC50 against Abl (T315I) and against Abl kinase were 32 nM and 15 nM, respectively.
In the case of `Nc1nc2ccc(/C=C/c3cnc(Nc4ccc(OC5CCNCC5)cc4)nc3)cc2s1` [6-[(E)-2-(2-{[4-(piperidin-4-yloxy)phenyl]amino}pyrimidin-5-yl)vinyl]-1,3-benzothiazol-2-amine], the IC50 against Abl (T315I) came out at 428 nM; against Abl kinase, 259 nM.
The corresponding values for `O=S(=O)(c1ccc(Nc2ncc(/C=C/c3ccc4[nH]ccc4c3)cn2)cc1)C1CCNCC1` [{5-[2-(1H-Indol-5-yl)-vinyl]-pyrimidin-2-yl}-[4-(piperidine-4-sulfonyl)-phenyl]-amine] are 138 nM and 37 nM.
For `O=S(=O)(c1ccc(Nc2ncc(/C=C/c3cccc4[nH]ccc34)cn2)cc1)N(CCO)C1CCNCC1` [N-(2-hydroxyethyl)-4-({5-[(E)-2-(1H-indol-4-yl)vinyl]pyrimidin-2-yl}amino)-N-piperidin-4-ylbenzenesulfonamide] the same measures were 728 nM and 430 nM.
As to `O=S(=O)(c1ccc(Nc2ncc(/C=C/c3cccc(O)c3)cn2)cc1)N1CCC(CO)CC1` [3-(2-{2-[4-(4-Hydroxymethyl-piperidine-1-sulfonyl)-phenylamino]-pyrimidin-5-yl}-vinyl)-phenol], the IC50 at Abl (T315I) was found to be 225 nM; at Abl kinase, 22 nM.
As to `NC1CCN(S(=O)(=O)c2ccc(Nc3ncc(/C=C/c4cccc5[nH]ccc45)cn3)cc2)CC1` [N-{4-[(4-aminopiperidin-1-yl)sulfonyl]phenyl}-5-[(E)-2-(1H-indol-4-yl)vinyl]pyrimidin-2-amine], the IC50 against Abl (T315I) was 347 nM; against Abl kinase, 13 nM.
The corresponding values for `CN(C)CCN(C1CCNCC1)S(=O)(=O)c1ccc(Nc2ncc(/C=C/c3cccc4[nH]ccc34)cn2)cc1` [N-[2-(dimethylamino)ethyl]-4-({5-[(E)-2-(1H-indol-4-yl)vinyl]pyrimidin-2-yl}amino)-N-piperidin-4-ylbenzenesulfonamide] are 182 nM and 25 nM.
For `O=S(=O)(CCCN1CCNCC1)c1ccc(Nc2ncc(/C=C/c3cccc4[nH]ccc34)cn2)cc1` [{5-[2-(1H-Indol-4-yl)-vinyl]-pyrimidin-2-yl}-[4-(3-piperazin-1-yl-propane-1-sulfonyl)-phenyl]-amine] the same measures were 488 nM and 54 nM.
For `Nc1nc2cc(/C=C/c3cnc(Nc4ccc(S(=O)(=O)C5CCNCC5)cc4)nc3)ccc2s1` [5-((E)-2-(2-(4-(piperidin-4-ylsulfonyl)phenylamino)pyrimidin-5-yl)vinyl)benzo[d]thiazol-2-amine Hydrochloride] the same measures were 416 nM and 101 nM.
`O=S(=O)(c1ccc(Nc2ncc(/C=C/c3cc(C(F)(F)F)cc4[nH]nnc34)cn2)cc1)N1CCCNCC1` [[4-([1,4]Diazepane-1-sulfonyl)-phenyl]-{5-[2-(6-trifluoromethyl-1H-benzotriazol-4-yl)-vinyl]-pyrimidin-2-yl}-amine]: the IC50 was determined as 67 nM against Abl (T315I) and 59 nM on Abl kinase.
For `O=S(=O)(NCCN1CCCC1)c1ccc(Nc2ncc(/C=C/c3cccc4[nH]ncc34)cn2)cc1` [4-{5-[2-(1H-Indazol-4-yl)-vinyl]-pyrimidin-2-ylamino}-N-(2-pyrrolidin-1-yl-ethyl)-benzenesulfonamide] the same measures were 133 nM and 7.6 nM.
In the case of `Oc1cccc(/C=C/c2cnc(Nc3ccc(OCCN4CCCC4)cc3)nc2)c1` [3-((E)-2-(2-(4-(2-(pyrrolidin-1-yl)ethoxy)phenylamino)pyrimidin-5-yl)vinyl)phenol trifluoroacetate], the IC50 against Abl (T315I) was 297 nM; at Abl kinase, 30 nM.
Turning to `CN1CCN(C(=O)c2ccc(Nc3ncc(/C=C/c4cccc5[nH]ccc45)cn3)cc2)CC1` [5-[(E)-2-(1H-indol-4-yl)vinyl]-N-{4-[(4-methylpiperazin-1-yl)carbonyl]phenyl}pyrimidin-2-amine], the figures for the IC50 on Abl (T315I) and against Abl kinase were 852 nM and 41 nM, respectively.
As for `O=S(=O)(CCCN1CCCC1)c1ccc(Nc2ncc(/C=C/c3cccc4[nH]ncc34)cn2)cc1` [5-[(E)-2-(1H-indazol-4-yl)vinyl]-N-{4-[(3-pyrrolidin-1-ylpropyl)sulfonyl]phenyl}pyrimidin-2-amine], the figures for the IC50 against Abl (T315I) and against Abl kinase were 124 nM and 3.9 nM, respectively.
The corresponding values for `CN1CCN(S(=O)(=O)c2cccc(Nc3ncc(/C=C/c4cccc5[nH]ccc45)cn3)c2)CC1` [5-[(E)-2-(1H-indol-4-yl)vinyl]-N-{3-[(4-methylpiperazin-1-yl)sulfonyl]phenyl}pyrimidin-2-amine] are ~10000 nM and 784 nM.
The corresponding values for `O=S(=O)(c1ccc(Nc2ncc(/C=C/c3cccc(C(F)F)c3)cn2)cc1)C1CCNCC1` [5-(3-(difluoromethyl)styryl)-N-(4-piperidin-4-ylsulfonyl)phenyl)pyrimidin 2-amine. Triflate] are 486 nM and 162 nM.
For `Nc1cn2cc(/C=C/c3cnc(Nc4ccc(S(=O)(=O)C5CCNCC5)cc4)nc3)ccc2n1` [6-[(E)-2-(2-{[4-(piperidin-4-ylsulfonyl)phenyl]amino}pyrimidin-5-yl)vinyl]imidazolo[1,2-a]pyridin-2-amine trifluoroacetic acid salt] the same measures were 136 nM and 469 nM.
Turning to `Nc1nc2ccc(/C=C/c3cnc(Nc4ccc(S(=O)(=O)N5CCNCC5)cc4)nc3)cc2s1` [(E)-6-(2-(2-(4-(piperazin-1-ylsulfonyl)phenylamino)pyrimidin-5-yl)vinyl)benzo[d]thiazol-2-amine], the IC50 against Abl (T315I) was 38 nM; at Abl kinase it was 40 nM.
The corresponding values for `O=S(=O)(c1ccc(Nc2ncc(/C=C/c3ccnc4[nH]ccc34)cn2)cc1)C1CCNCC1` [N-[4-(piperidin-4-ylsulfonyl)phenyl]-5-[(E)-2-(1H-pyrrolo[2,3-b]pyridin-4-yl)vinyl]pyrimidin-2-amine] are 163 nM and 38 nM.
For `O=S(=O)(NCCN1CCCC1)c1ccc(Nc2ncc(/C=C/c3cccc4[nH]ccc34)cn2)cc1` [4-({5-[(E)-2-(1H-indol-4-yl)vinyl]pyrimidin-2-yl}amino)--N-[4-(2-pyrrolidin-1-ylethyl)benzenesulfonamide] the same measures were 738 nM and 26 nM.
The corresponding values for `O=S(=O)(NCCO)c1ccc(Nc2ncc(/C=C/c3ccccc3)cn2)cc1N1CCNCC1` [N-(2-hydroxyethyl)-4-({5-[(E)-2-phenylvinyl]pyrimidin-2-yl}amino)-2-piperazin-1-ylbenzenesulfonamide trifluoroacetic acid salt] are 7340 nM and 406 nM.
For the compound `Nc1nc2ccc(/C=C/c3cnc(Nc4ccc(S(=O)(=O)N5CCNCC5CO)cc4)nc3)cc2s1` (stereo not drawn) [(1-{[4-({5-[(E)-2-(2-amino-1,3-benzothiazol-6-yl)vinyl]pyrimidin-2-yl}amino)phenyl]sulfonyl}piperazin-2-yl)methanol], the IC50 is 115 nM against Abl (T315I) and 119 nM against Abl kinase.
As for `O=C(c1ccc(Nc2ncc(/C=C/c3cccc4[nH]ncc34)cn2)cc1)N1CCNCC1` [(4-(5-((E)-2-(1H-indazol-4-yl)vinyl)pyrimidin-2-ylamino)phenyl)(piperazin-1-yl)methanone hydrochloride], the IC50 was 231 nM against Abl (T315I) and 20 nM at Abl kinase.
For `Cc1cccc(/C=C/c2cnc(Nc3ccc(S(=O)(=O)C4CCNCC4)cc3)nc2)c1` [5-(3-(methyl)styryl)-N-(4-(piperidin-4-ylsulfonyl)phenyl)pyrimidin-2-amine. TFA] the same measures were 562 nM and 51 nM.
The corresponding values for `CN(C)CCN(C1CCNCC1)S(=O)(=O)c1ccc(Nc2ncc(/C=C/c3ccc4nc(N)sc4c3)cn2)cc1` [4-({5-[(E)-2-(2-amino-1,3-benzothiazol-6-yl)vinyl}pyrimidin-2-yl}amino)-N-[2-(dimethylamino)ethyl]-N-piperidin-4-ylbenzenesulfonamide] are 38 nM and 109 nM.
With `O=S(=O)(c1ccc(Nc2ncc(/C=C/c3cccc4[nH]ccc34)cn2)cc1)N1CCCNCC1` [[4-([1,4]Diazepane-1-sulfonyl)-phenyl]-{5-[2-(1H-indol-4-yl)-vinyl]-pyrimidin-2-yl}-amine], the IC50 came to 195 nM on Abl (T315I) and 13 nM against Abl kinase.
